{"source": "paper PMC3715890", "about": "“A Cyclic Peptide Inhibitor of HIF-1 Heterodimerization That Inhibits Hypoxia Signaling in Cancer Cells” (Journal of the American Chemical Society, 2013)", "key": {"MCF-7 cells": {"tested_on": "MCF-7 cells", "assay": "CyQUANT cell proliferation assay, MCF-7", "type": "cell-based", "conditions": "1 μM, positive control, 72 h", "procedure": "Sulforhodamine B cytotoxicity assay […]\nincubated in hypoxia for 24h.\nO.D. value of the experimental set.\nCyQUANT cell proliferation assay\nThe cells were incubated for 5 hours and then treated with Tamoxifen or P1. After 24, 48 or 72 hours, the media was […]\nC35006) following the manufacturers instructions. Fluorescence measurements were […]\nWorkman, P.; Ashcroft, M. Cancer Res 2005, 65, 4918."}, "[1]": {"tested_on": "HIF-1 (HIF-dependent luciferase reporter, U2OS-HRE-luc cells)", "assay": "HIF-1-dependent luciferase reporter assay, U2OS-HRE-luc", "type": "cell-based, human", "procedure": "(§1) The ability of P1–P3 to disrupt HIF-1 function in cells was assessed using a HIF-1-dependent luciferase reporter assay.[15],[21] The assay uses human osteosarcoma U2OS cells, stably transfected with a HIF-dependent luciferase reporter construct (U2OS-HRE-luc), where activation of HIF results in an increase in luciferase expression.[15]\n(§2) Endogenous HIF-1 luciferase reporter assays were conducted as previously reported in U2OS-HRE-luc[15] and MCF-7 cells.[46] For plasmid-expressed HIF-α luciferase reporter assays, MCF-7 and U2OS cells were transiently transfected with plasmids expressing HIF-1α, HIF-2α, or a blank control (pcDNA3.1-HIF-1α, pcDNA3.1-HIF-2α, or pcDNA3.1), a renilla-encoding control (phRL-TK), and a HIF-dependent firefly luciferase reporter construct (pGL2-TK-HRE), using Transfast (Promega) according to the manufacturer’s instructions. After 24 h, cells were recovered and plated (4000 cells/well) in 96-well plates (Perkin-Elmer) and incubated for 5 h before either hypoxic or aerobic incubation in presence or absence of cyclic peptide inhibitors. Firefly and renilla activities were determined using Dual-Glo Reagent (Promega) according to the manufacturer’s instructions. The luciferase signal was normalized using the corresponding renilla values.\nCells were treated with the stated concentrations of inhibitor (P1, P2, or P3) and incubated in normoxia for 4 h, followed by incubation in a hypoxic environment. All manipulation of cell pellets (e.g., lysis, mRNA, and protein extraction) was conducted in a hypoxic environment."}, "[2]": {"tested_on": "HIF-1 (HIF-dependent luciferase reporter, MCF-7 breast cancer cells)", "assay": "HIF-1-dependent luciferase reporter assay, MCF-7", "type": "cell-based", "conditions": "MCF-7, 100 μM", "procedure": "as §1\nas §2, with “values. […]” for “values.”"}, "His-HIF-1α1–350": {"tested_on": "His-HIF-1α1–350", "assay": "Fluorescent binding assay, HIF-1α", "conditions": "fluorescence at 680 nm, Ni2+-coated plate, 5 µL of 100 µM solution in 95 µL buffer, 1 hour, room temperature"}, "His-HIF-2α1–351": {"tested_on": "His-HIF-2α1–351", "assay": "Fluorescent binding assay, HIF-2α", "conditions": "fluorescence at 680 nm, Ni2+-coated plate, 5 µL of 100 µM solution in 95 µL buffer, 1 hour, room temperature"}, "PAS-B domain of HIF-1α": {"molecular_target": "T1, PAS-B domain of HIF-1α (Homo sapiens, UniProt Q16665)", "T1 construct": "Per-ARNT-Sim-B (PAS-B, amino acids 235–350) domains; His (N); made in house; host or cells: E. coli BL21(DE3)", "T1 sequence (Q16665 235-350)": "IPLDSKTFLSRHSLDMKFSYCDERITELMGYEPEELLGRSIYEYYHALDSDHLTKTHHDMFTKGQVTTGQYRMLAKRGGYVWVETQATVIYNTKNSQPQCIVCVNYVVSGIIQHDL", "assay": "Fluorescent binding assay, PAS-B", "conditions": "fluorescence at 680 nm, Ni2+-coated plate"}, "bHLH domain of HIF-1α": {"tested_on": "bHLH domain of HIF-1α", "assay": "Fluorescent binding assay, bHLH", "conditions": "fluorescence at 680 nm, Ni2+-coated plate"}, "PAS-A domain of HIF-1α": {"tested_on": "PAS-A domain of HIF-1α", "assay": "Fluorescent binding assay, PAS-A", "conditions": "fluorescence at 680 nm, Ni2+-coated plate"}, "[3]": {"tested_on": "U2OS-luc control cell line stably expressing luciferase", "assay": "Control constitutive luciferase reporter, U2OS-luc", "type": "cell-based, human", "source_text": "Figure S3: Identification of cyclic peptide HIF-1 inhibitors. (A) SICLOPPS expression is induced by arabinose, which processes to give a member of the cyclic peptide library. A dimerization inhibitor would be expected to rescue growth of the HIF-1 RTHS on selective media plates containing IPTG, kanamycin and 3-amino-triazole, and arabinose. (B) The ability of the selected cyclic peptides to […]\nHIF-1 RTHS containing the corresponding SICLOPPS plasmid onto selective media. In the absence of arabinose the SICLOPPS split-intein is not produced; the HIF-1 RTHS containing plasmids encoding […]\ncolonies show survival on selective media plates containing IPTG and arabinose (panel 2). Expressing the 3 selected cyclic peptides from mutant SICLOPPS inteins (H24A, F26A mutations in the C- […]\ncyclic form of the peptides and their activity. […]\nexpressing a constitutive luciferase reporter construct. […]"}, "[4]": {"tested_on": "HIF-2 (HIF-dependent luciferase reporter, MCF-7 cells)", "assay": "HIF-2 luciferase reporter assay, MCF-7", "type": "cell-based", "conditions": "MCF-7, transfected HIF-2α", "source_text": "(§3) In addition, P1 had no effect on VEGF protein levels in hypoxic 786-O cells (Figure 6B). To further probe the effect of P1 on HIF-2, a luciferase reporter assay was developed and used. The assay was derived from the HIF-1 luciferase reporter assay detailed above (Figure 2C and D) and adapted for HIF-2 by replacing the plasmid encoding HIF-1α with the equivalent plasmid encoding HIF-2α. […] P2 and P3 also had no effect on HIF-2 in this assay (Figure S9).\nas §2"}, "[5]": {"tested_on": "HIF-2 (HIF-dependent luciferase reporter, U2OS cells)", "assay": "HIF-2 luciferase reporter assay, U2OS", "type": "cell-based, human", "conditions": "transfected HIF-2α", "source_text": "as §3, §2"}, "[6]": {"tested_on": "HIF-1α/HIF-1β protein–protein interaction", "assay": "HIF-1 bacterial reverse two-hybrid system (RTHS), SICLOPPS-expressed cyclic peptides, drop-spotting", "type": "cell-based", "conditions": "E. coli HIF-1 RTHS, cyclic peptide expressed from SICLOPPS plasmid, 10-fold serial dilutions, compared with the other potential inhibitors", "source_text": "We used our genetically encoded high-throughput screening platform[23]−[25] to identify inhibitors of the HIF-1α/HIF-1β protein–protein interaction. We built and verified the function of a HIF-1 bacterial reverse two-hybrid system (RTHS, for a detailed description see the Supporting Information and Figures S1–S3). The HIF-1 RTHS was used to screen a plasmid-encoded SICLOPPS (split intein circular ligation of peptides and proteins)[26],[27] library of 3.2 million cyclic hexapeptides for HIF-1 dimerization inhibitors.\nAfter the first round of screening, 120 surviving colonies were observed and subjected to several rounds of secondary screening to eliminate false positives and nonselective inhibitors, leaving 12 potential HIF-1 dimerization inhibitors that were ranked by drop-spotting.\nThe HIF-1 RTHS, associated control RTHS, and SICLOPPS library were constructed as detailed in the Supporting Information. Electrocompetent cells of the HIF-1 RTHS were prepared and transformed with the C+5 SICLOPPS plasmid library. Transformation efficiency, assessed by plating 10-fold serial dilutions of the recovery solution on LB agar supplemented with chloramphenicol (35 μg/mL), was consistently found to be ∼5 × 10^7, thus ensuring adequate coverage of the 3.2 × 10^6 member cyclic peptide library. Transformants were washed with minimal media and plated onto minimal media agar plates supplemented with ampicillin (50 μg/mL), spectinomycin (25 μg/mL), kanamycin (50 μg/mL), 3-AT (7.5 μM), IPTG (100 μM), L-arabinose (6.5 μM), and chloramphenicol (35 μg/mL). The plates were incubated for 2–3 days at 37 °C until individual colonies were visible. Colonies were picked and restreaked onto LB agar plates containing ampicillin (50 μg/mL), spectinomycin (25 μg/mL), and chloramphenicol (35 μg/mL) and incubated overnight at 37 °C.\nSurviving colonies from these plates were grown overnight and assessed by drop-spotting 10-fold serial dilutions onto minimal media plates, supplemented with antibiotics, IPTG and 3-AT as above, with and without 6.5 μM L-arabinose. […]"}}, "note": "Entries after “also recorded” stand apart in the source; their conditions may differ.", "data": [{"compound": "CC/C(=C(\\c1ccc(O)cc1)c1ccc(OCCN(C)C)cc1)c1ccccc1", "note": "[4-hydroxytamoxifen, reference compound]", "values": [{"measurement": "proliferation of MCF-7 cells", "setting": "MCF-7 cells", "result": "inhibited proliferation; also recorded: arrests cell division"}]}, {"compound": "CGRKKRRQRRRPPQ [Tat-tag, Tat-tag alone, control, reference compound]", "values": [{"measurement": "effect on luciferase signal, Tat-tag alone", "setting": "[1]; U2OS, 100 μM", "result": "did not affect the luciferase signal"}, {"measurement": "effect on luciferase signal, Tat-tag alone", "setting": "[2]", "result": "did not affect the luciferase signal"}]}, {"compound": "Megastokes dye 673-triazole-(cyclo-ALLFVY) (head to tail) [fluorescent derivative of cyclo-CLLFVY, propargylalanine derivative of cyclo-CLLFVY click-linked to azide-Megastoke dye 673]", "values": [{"measurement": "binding to His-HIF-1α1–350", "setting": "His-HIF-1α1–350", "result": "observed binding"}, {"measurement": "binding to His-HIF-2α1–351", "setting": "His-HIF-2α1–351", "result": "close to background levels"}, {"measurement": "binding to PAS-B domain of HIF-1α", "setting": "PAS-B domain of HIF-1α", "result": "binds the PAS-B domain of HIF-1α"}, {"measurement": "binding to bHLH domain of HIF-1α", "setting": "bHLH domain of HIF-1α", "result": "close to background level"}, {"measurement": "binding to PAS-A domain of HIF-1α", "setting": "PAS-A domain of HIF-1α", "result": "close to background level"}]}, {"compound": "Tat-cyclo-CLLRMY (head to tail) [P3, cyclo-CLLRMY tagged with Tat peptide via a disulfide bond]", "values": [{"measurement": "effect on luciferase reporter in hypoxia", "setting": "[1]; U2OS-HRE-luc, hypoxia (1% O2)", "result": "did not show an effect"}, {"measurement": "effect on luciferase reporter in normoxia (basal)", "setting": "[1]; U2OS-HRE-luc, normoxia", "result": "did not show an effect"}, {"measurement": "effect on constitutive luciferase signal", "setting": "[3]", "result": "do not affect"}, {"measurement": "effect on HIF-2 luciferase reporter signal", "setting": "[4]", "result": "do not affect"}, {"measurement": "effect on HIF-2 luciferase reporter signal", "setting": "[5]", "result": "do not affect"}]}, {"compound": "cyclo-CLLFVY (head to tail)", "values": [{"measurement": "activity ranking by drop-spotting in HIF-1 RTHS", "setting": "[6]", "result": "significantly more active than the others"}]}, {"compound": "cyclo-CLLRMY (head to tail)", "values": [{"measurement": "activity ranking by drop-spotting in HIF-1 RTHS", "setting": "[6]", "result": "significantly more active than the others"}]}, {"compound": "cyclo-CRLMVL (head to tail)", "values": [{"measurement": "activity ranking by drop-spotting in HIF-1 RTHS", "setting": "[6]", "result": "significantly more active than the others"}]}]}
